The values that follow come from article PMC4260628 (Chembiochem : a European journal of chemical biology, 2014).

Read-outs that look alike come from different tables or passages of the source.

Experiment [1] deals with T1, TxtE (Streptomyces scabiei, UniProt C9ZDC6). The following applies: read-out: previously reported Kd; TxtE with L-tryptophan; cited from earlier work.
For experiment [2], the target named is T1, TxtE. In kind it is binding, Streptomyces scabies. The following applies: TxtE in E. coli cell lysate 1.9 – 2.8 μM, substrate 250–500 μM, 15 min, pH 8.
Experiment [3] concerns the target T1, TxtE. As to the kind of experiment: biochemical. Format: binding, Streptomyces scabies.

For the molecule `N[C@@H](Cc1c[nH]c2ccccc12)C(=O)O` [Substrate 1, L-tryptophan], the values for the Kd on TxtE [1] and on TxtE [3] were 44 to 60 µM and 39 µM, respectively. Also, at TxtE [2], the “Spectral Shift” value is “type I”.
